Experiment [1] has as its system constitutive active colorectal cancer cell (CRC) Wnt pathway. The experiment in a line: HCT116 TOPFlash cellular reporter assay (Super TopFlash luciferase), constitutive active Wnt pathway. In kind it is cell-based. Conditions: HCT116 TOP reporter cells, 36 hours incubation, luciferase expression. The protocol: In order to discover and characterize small molecules which inhibit the constitutive active colorectal cancer cell (CRC) Wnt pathway, a cellular reporter assay was employed. […] Stable transfectants were generated by cotransfection with pcDNA3 and selection of stable transfected cells with 1 mg/ml G418.
In general terms: Reporter assays use an easily measured gene product as a stand-in for the process of interest.

Experiment [2] concerns HCT116 FOP control reporter cell line. The experiment in a line: HCT116 FOPFlash control reporter assay (FOP control vector, non-functional TCF elements). In kind it is cell-based. Conditions: HCT116 FOP control reporter cells, 36 hours incubation, luciferase expression. The text has this: In a parallel approach, HCT116 cells were cotransfected with the FOP control vector and pcDNA3. The FOP vector is identical to the TOP construct, but it contains instead of functional TCF elements a randomized, non-functional sequence. For this transfection a stable transfected cell line was generated as well.

Counter-ions that a name gives are not always drawn. Some results are limits rather than exact numbers.

Broadly, the IC50 is the concentration at which inhibition is half-maximal. Read a low IC50 as greater potency in that assay. With `CC(C(=O)Nc1cc(C(=O)Nc2ccc(-c3cc(F)cc(F)c3)nc2)ccc1OC(F)(F)F)N1CCOCC1` (stereo not shown) [Example 246, N-[6-(3,5-difluorophenyl)pyridin-3-yl]-3-{[2-(morpholin-4-yl)propanoyl]amino}-4-(trifluoromethoxy)benzamide], the IC50 in experiment [1] was 47.5 nM; in experiment [2], 27.8 µM.

For `CC(C(=O)Nc1cc(C(=O)Nc2ccc(-c3ccccc3F)nc2)ccc1OC(F)(F)F)N1CCN(C2CC2)CC1` (stereo not shown) [Example 249, 3-{[2-(4-cyclopropylpiperazin-1-yl)propanoyl]amino}-N-[6-(2-fluorophenyl)pyridin-3-yl]-4-(trifluoromethoxy)benzamide], the half-inhibitory concentration (IC50) in experiment [1] stood at 198 nM; in experiment [2], 38 µM.

In the case of `CC(C(=O)Nc1cc(C(=O)Nc2ccc(-c3ccccc3F)nc2)ccc1OC(F)(F)F)N1CCN(C2CC2)CC1` (stereo not shown) [Example 250, 3-{[2-(4-cyclopropylpiperazin-1-yl)propanoyl]amino}-N-[6-(2-fluorophenyl)pyridin-3-yl]-4-(trifluoromethoxy)benzamide], the values for the 50% inhibitory concentration (IC50) in experiment [1] and in experiment [2] were 192 nM and 31 µM, respectively.

Regarding `CN(C)C1(C(=O)Nc2cc(C(=O)Nc3ccc(-c4cc(F)cc(F)c4)nc3)ccc2OC(F)(F)F)CC1` [Example 251, N-[6-(3,5-difluorophenyl)pyridin-3-yl]-3-({[1-(dimethylamino)cyclopropyl]carbonyl}amino)-4-(trifluoromethoxy)benzamide], the 50% inhibitory concentration (IC50) in experiment [1] (Homo sapiens, HCT-116, 36 h) came to 220 nM; in experiment [2] (Homo sapiens, HCT-116, 36 h) it was 16 µM.

For the compound `O=C(CN1CCOCC1)Nc1cc(NC(=O)c2cnc(-c3ccccc3)s2)ccc1OC(F)(F)F` [Example 252, N-{3-[(morpholin-4-ylacetyl)amino]-4-(trifluoromethoxy)phenyl}-2-phenyl-1,3-thiazole-5-carboxamide], the 50% inhibitory concentration (IC50) is 2300 nM in experiment [1] (Homo sapiens, HCT-116, 36 h) and ≥ 50 µM in experiment [2] (Homo sapiens, HCT-116, 36 h).

As to `O=C(CN1CCN(C2CC2)CC1)Nc1cc(C(=O)Nc2nnc(-c3ccccc3)s2)ccc1Br` [Example 253, 4-bromo-3-{[(4-cyclopropylpiperazin-1-yl)acetyl]amino}-N-(5-phenyl-1,3,4-thiadiazol-2-yl)benzamide], the IC50 was 4040 nM in experiment [1] (Homo sapiens, HCT-116, 36 h) and ≥ 50 µM in experiment [2] (Homo sapiens, HCT-116, 36 h).

Consider `O=C(CN1C[C@@H]2C[C@H]1CO2)Nc1cc(C(=O)Nc2nnc(-c3ccccc3)s2)ccc1OC(F)(F)F` [Example 254, 3-{[(1S,4S)-2-oxa-5-azabicyclo[2.2.1]hept-5-ylacetyl]amino}-N-(5-phenyl-1,3,4-thiadiazol-2-yl)-4-(trifluoromethoxy)benzamide], for which the concentration for half-maximal inhibition (IC50) in experiment [1] (Homo sapiens, HCT-116, 36 h) is 4340 nM; in experiment [2] (Homo sapiens, HCT-116, 36 h), ≥ 50 µM.

Turning to `CC(C(=O)Nc1cc(NC(=O)c2cnc(-c3ccccc3)s2)ccc1OC(F)(F)F)N1CCOCC1` (stereo not shown) [Example 255, N-[3-{[2-(morpholin-4-yl)propanoyl]amino}-4-(trifluoromethoxy)phenyl]-2-phenyl-1,3-thiazole-5-carboxamide], the IC50 in experiment [1] (Homo sapiens, HCT-116, 36 h) is 2100 nM; in experiment [2] (Homo sapiens, HCT-116, 36 h), ≥ 50 µM.

With `COc1ccc(NC(=O)c2ccc(-c3ccccc3)nc2)cc1NC(=O)C1(N2CCOCC2)CC1` [Example 256, N-[4-methoxy-3-({[1-(morpholin-4-yl)cyclopropyl]carbonyl}amino)phenyl]-6-phenylnicotinamide], the half-inhibitory concentration (IC50) was 240 nM in experiment [1] (Homo sapiens, HCT-116, 36 h) and ≥ 50 µM in experiment [2] (Homo sapiens, HCT-116, 36 h).

In the case of `Cc1ccccc1-c1nnc(NC(=O)c2ccc(OC(F)(F)F)c(NC(=O)C3(N4CCOCC4)CC3)c2)s1` [Example 257, N-[5-(2-methylphenyl)-1,3,4-thiadiazol-2-yl]-3-({[1-(morpholin-4-yl)cyclopropyl]carbonyl}amino)-4-(trifluoromethoxy)benzamide], the IC50 is 17 nM in experiment [1] (Homo sapiens, HCT-116, 36 h) and ≥ 50 µM in experiment [2] (Homo sapiens, HCT-116, 36 h).

For `COCc1ccc(C(=O)Nc2nnc(-c3ccccc3C)s2)cc1NC(=O)C1(N2CCN(C)CC2)CC1` [Example 258, 4-(methoxymethyl)-N-[5-(2-methylphenyl)-1,3,4-thiadiazol-2-yl]-3-({[1-(4-methylpiperazin-1-yl)cyclopropyl]carbonyl}amino)benzamide trifluoroacetate (1:1)], the 50% inhibitory concentration (IC50) in experiment [1] (Homo sapiens, HCT-116, 36 h) was found to be 45.5 nM; in experiment [2] (Homo sapiens, HCT-116, 36 h), 24 µM.

As for `CN1CCN(CC(=O)Nc2cc(C(=O)Nc3nnc(-c4ccccc4)s3)ccc2OCC2CC2)CC1` [Example 259, 4-(cyclopropylmethoxy)-3-{[(4-methylpiperazin-1-yl)acetyl]amino}-N-(5-phenyl-1,3,4-thiadiazol-2-yl)benzamide], the IC50 is 119 nM in experiment [1] (Homo sapiens, HCT-116, 36 h) and ≥ 50 µM in experiment [2] (Homo sapiens, HCT-116, 36 h).

Regarding `COCCN(C)C1(C(=O)Nc2cc(C(=O)Nc3nnc(-c4ccccc4)s3)ccc2OC(F)(F)F)CC1` [Example 261, 3-[({1-[(2-methoxyethyl)(methyl)amino]cyclopropyl}carbonyl)amino]-N-(5-phenyl-1,3,4-thiadiazol-2-yl)-4-(trifluoromethoxy)benzamide], the IC50 in experiment [1] (Homo sapiens, HCT-116, 36 h) is 150 nM; in experiment [2] (Homo sapiens, HCT-116, 36 h), ≥ 50 µM.

In the case of `O=C(Nc1nnc(-c2ccccc2)s1)c1ccc(Cl)c(NC(=O)C2(N3CCN(C4CC4)CC3)CC2)c1` [Example 262, 4-chloro-3-({[1-(4-cyclopropylpiperazin-1-yl)cyclopropyl]carbonyl}amino)-N-(5-phenyl-1,3,4-thiadiazol-2-yl)benzamide trifluoroacetate (1:1)], the half-maximal inhibitory concentration (IC50) in experiment [1] (Homo sapiens, HCT-116, 36 h) was 195 nM; in experiment [2] (Homo sapiens, HCT-116, 36 h) it was ≥ 50 µM.

As to `Nc1ccc(-c2nnc(NC(=O)c3ccc(OC(F)(F)F)c(NC(=O)CN4CCOCC4)c3)s2)cc1` [Example 263, N-[5-(4-aminophenyl)-1,3,4-thiadiazol-2-yl]-3-[(morpholin-4-ylacetyl)amino]-4-(trifluoromethoxy)benzamide], the IC50 in experiment [1] (Homo sapiens, HCT-116, 36 h) was 250 nM; in experiment [2] (Homo sapiens, HCT-116, 36 h) it was ≥ 50 µM.

Consider `Cc1ccccc1-c1nnc(NC(=O)c2ccc(OC3CC3)c(NC(=O)CN3CCN(C)CC3)c2)s1` [Example 264, 4-(cyclopropyloxy)-N-[5-(2-methylphenyl)-1,3,4-thiadiazol-2-yl]-3-{[(4-methylpiperazin-1-yl)acetyl]amino}benzamide], for which the half-maximal inhibitory concentration (IC50) in experiment [1] (Homo sapiens, HCT-116, 36 h) is 255 nM; in experiment [2] (Homo sapiens, HCT-116, 36 h), ≥ 50 µM.

On to `O=C(CN1CCN(C2CC2)CC1)Nc1cc(C(=O)Nc2nnc(-c3ccccc3)s2)ccc1OCC1CC1` [Example 265, 4-(cyclopropylmethoxy)-3-{[(4-cyclopropylpiperazin-1-yl)acetyl]amino}-N-(5-phenyl-1,3,4-thiadiazol-2-yl)benzamide], for which the IC50 in experiment [1] (Homo sapiens, HCT-116, 36 h) is 320 nM; in experiment [2] (Homo sapiens, HCT-116, 36 h), ≥ 50 µM.

As for `Cc1ccccc1-c1nnc(NC(=O)c2ccc(OC3CC3)c(NC(=O)CN3CCOCC3)c2)s1` [Example 266, 4-(cyclopropyloxy)-N-[5-(2-methylphenyl)-1,3,4-thiadiazol-2-yl]-3-[(morpholin-4-ylacetyl)amino]benzamide], the IC50 in experiment [1] (Homo sapiens, HCT-116, 36 h) is 345 nM; in experiment [2] (Homo sapiens, HCT-116, 36 h), ≥ 50 µM.

In the case of `CN1CCN(CC(=O)Nc2cc(C(=O)Nc3nnc(-c4cccc(C#N)c4)s3)ccc2OC(F)(F)F)CC1` [Example 267, N-[5-(3-cyanophenyl)-1,3,4-thiadiazol-2-yl]-3-{[(4-methylpiperazin-1-yl)acetyl]amino}-4-(trifluoromethoxy)benzamide], the half-inhibitory concentration (IC50) in experiment [1] (Homo sapiens, HCT-116, 36 h) is 365 nM; in experiment [2] (Homo sapiens, HCT-116, 36 h), ≥ 50 µM.

On to `O=C(CN1CCOCC1)Nc1cc(C(=O)Nc2nnc(-c3ccccc3)s2)ccc1OCC1CC1` [Example 268, 4-(cyclopropylmethoxy)-3-[(morpholin-4-ylacetyl)amino]-N-(5-phenyl-1,3,4-thiadiazol-2-yl)benzamide], for which the IC50 in experiment [1] (Homo sapiens, HCT-116, 36 h) is 365 nM; in experiment [2] (Homo sapiens, HCT-116, 36 h), ≥ 50 µM.

For `CCc1ccccc1-c1nnc(NC(=O)c2ccc(OC(F)(F)F)c(NC(=O)CN3CCOCC3)c2)s1` [Example 269, N-[5-(2-ethylphenyl)-1,3,4-thiadiazol-2-yl]-3-[(morpholin-4-ylacetyl)amino]-4-(trifluoromethoxy)benzamide], the half-inhibitory concentration (IC50) in experiment [1] (Homo sapiens, HCT-116, 36 h) is 375 nM; in experiment [2] (Homo sapiens, HCT-116, 36 h), ≥ 50 µM.

As to `CN1CCN(CC(=O)Nc2cc(C(=O)Nc3nnc(-c4ccccc4C(F)(F)F)s3)ccc2OC(F)(F)F)CC1` [Example 270, 3-{[(4-methylpiperazin-1-yl)acetyl]amino}-4-(trifluoromethoxy)-N-{5-[2-(trifluoromethyl)phenyl]-1,3,4-thiadiazol-2-yl}benzamide], the IC50 in experiment [1] (Homo sapiens, HCT-116, 36 h) is 390 nM; in experiment [2] (Homo sapiens, HCT-116, 36 h), ≥ 50 µM.

As for `Cc1ccccc1-c1nnc(NC(=O)c2ccc(OC(F)(F)F)c(NC(=O)C3(N4CCN(C)CC4)CC3)c2)s1` [Example 271, N-[5-(2-methylphenyl)-1,3,4-thiadiazol-2-yl]-3-({[1-(4-methylpiperazin-1-yl)cyclopropyl]carbonyl}amino)-4-(trifluoromethoxy)benzamide], the IC50 in experiment [1] (Homo sapiens, HCT-116, 36 h) is 480 nM; in experiment [2] (Homo sapiens, HCT-116, 36 h), ≥ 50 µM.

As to `CN1CCN(CC(=O)Nc2cc(C(=O)Nc3nnc(-c4cccc(C(F)(F)F)c4)s3)ccc2OC(F)(F)F)CC1` [Example 272, 3-{[(4-methylpiperazin-1-yl)acetyl]amino}-4-(trifluoromethoxy)-N-{5-[3-(trifluoromethyl)phenyl]-1,3,4-thiadiazol-2-yl}benzamide], the IC50 in experiment [1] (Homo sapiens, HCT-116, 36 h) was 545 nM; in experiment [2] (Homo sapiens, HCT-116, 36 h), ≥ 50 µM.

Consider `CC[C@H](C(=O)Nc1cc(C(=O)Nc2nnc(-c3ccccc3)s2)ccc1OC(F)(F)F)N1CCN(C)CC1` [Example 274, 3-{[(2R)-2-(4-methylpiperazin-1-yl)butanoyl]amino}-N-(5-phenyl-1,3,4-thiadiazol-2-yl)-4-(trifluoromethoxy)benzamide], for which the IC50 in experiment [1] (Homo sapiens, HCT-116, 36 h) was 3020 nM; in experiment [2] (Homo sapiens, HCT-116, 36 h), ≥ 50 µM.

For the compound `O=C(Nc1ccc([N+](=O)[O-])cc1Cl)c1cc(Cl)ccc1O` [Ref., niclosamide, reference compound], the half-maximal inhibitory concentration (IC50) in experiment [1] (Homo sapiens, HCT-116, 36 h) amounted to 1380 nM; in experiment [2] (Homo sapiens, HCT-116, 36 h) it was 3.1 µM.

Values taken from US10130633B2, “Compounds” (BAYER PHARMA AKTIENGESELLSCHAFT, priority 2013, dated 2018).
